Values belong to the compound of their own block, whether it stands above or below them.
Tests used:
[1] = system: human PMN; experiment: Inhibition of LTB4-induced chemotaxis of human PMN in vitro (BOYDEN-KELLER chambers); format: cell-based
Method: STUDY OF THE ACTIVITY OF THE COMPOUNDS OF THE INVENTION WITH RESPECT TO THE CHEMOTAXIS OF HUMAN PMN IN VITRO
PMN incubated in HBSS without Ca^2+ or Mg^2+ are labeled with ^51 chromium (1 μL Ci/10^6 cells) for 1 hour at 37° C. and then washed twice with HBSS.
The PMN are then resuspended at a concentration of 10^7 cells/cm^3 in Hank's buffer with the addition of 1% bovine albumin. LTB4 and the compounds of the invention dissolved in Hank buffer are introduced into the lower part of BOYDEN-KELLER chambers, two cellulose nitrate filters (Millipore, 3 μm) are placed on each well and the upper part of the chambers is filled with the cell suspension (Methods Enzymol 1988, vol. 162, pp 59-64).
The chambers are incubated for 150 min at 37° C. under an atmosphere of 95% humidified air and 5% CO2.
The radioactivity of the lower filter is measured with a scintillation spectrometer (Beckman LS 3801).

[2] = molecular target: T1, LTB4 receptors (Homo sapiens, UniProt Q15722); experiment: Study of binding to LTB4 (Leukotriene B4) receptors on human PMN, displacement of [^3 H]LTB4; conditions: for IC50: human PMN (10^6 cells), 1 nM [^3 H]LTB4, 20 min at 4° C., read-out: 50% inhibition (IC50) of the binding of [^3 H]LTB4
T1 construct: Human PMN are isolated from heparinized venous blood of healthy donors; endogenous in cells; host or cells: human polymorphonuclear leukocytes (PMN) from venous blood of healthy donors
T1 sequence (Q15722 whole entry): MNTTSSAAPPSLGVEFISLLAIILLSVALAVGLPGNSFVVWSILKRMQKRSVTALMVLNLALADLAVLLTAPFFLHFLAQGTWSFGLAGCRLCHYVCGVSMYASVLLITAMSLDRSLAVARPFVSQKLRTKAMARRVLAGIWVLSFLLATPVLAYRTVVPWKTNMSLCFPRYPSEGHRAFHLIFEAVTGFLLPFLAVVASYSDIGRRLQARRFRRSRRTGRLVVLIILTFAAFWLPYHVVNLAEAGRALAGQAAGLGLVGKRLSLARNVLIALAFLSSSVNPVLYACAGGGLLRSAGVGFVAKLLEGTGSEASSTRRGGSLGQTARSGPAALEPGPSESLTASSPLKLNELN
Method: Human PMN are isolated from heparinized venous blood of healthy donors by sedimentation on dextran T500. The supernatant is centrifuged on Ficoll Paque®, and the residual erythrocytes are removed by hypotonic lysis. The PMN are washed with Hank's isotonic saline solution (HBSS) free from Ca^2+ and Mg^2+.
[…] is verified by the trypan blue exclusion technique.
Study of binding to LTB4 receptors
Binding to PMN is carried out in HBSS free from Ca^2+ and Mg^2+ containing 5 mM HEPES buffer.
The PMN (10^6 cells) are incubated for 20 min at 4° C. with 1 nM [^3 H]LTB4 in the presence or absence of non-radioactive LTB4 or of the compounds of the invention at various concentrations.

[3] = system: LTB4-induced contraction of parenchymatous strips of guinea pig lung; experiment: LTB4-induced contraction of isolated parenchymatous lung strips; parameters: species or system DUNKIN HARTLEY guinea pig; conditions: contraction stimulated with 30 nM LTB4, compound added 2 min before; read-out: 50% inhibition of the contraction (IC50)
Method: STUDY OF THE ACTIVITY OF THE COMPOUNDS OF THE INVENTION WITH RESPECT TO THE CONTRACTION OF PARENCHYMATOUS LUNG STRIPS
LTB4 has a contracting effect on isolated parenchymatous strips of guinea pig lung. The antagonist activity of the compounds of the invention with respect to this LTB4 -induced contraction is tested.
Parenchymatous strips of DUNKIN HARTLEY guinea pig lung are cut and placed in baths containing Tyrode's solution oxygenated with a stream of gas (95% O2 /5% CO2). The strips are connected to a polygraph (GOULD Statham) with an isometric tension of 400 mg. After 1 h of equilibrium, 1 μM mepyramine and 10 μM atroprine are added to the Tyrode's solution, and the compounds of the invention are tested for their antagonist activities. The contractile responses are recorded over 5 min. The antagonist activities of the compounds of the invention are tested by adding these compounds to the bath 2 min before stimulation of contraction with 30 nM LTB4.

[4] = system: swelling of the ear of a mouse; experiment: Topical inflammatory model (psoriasis), arachidonic acid ear swelling; format: in vivo; conditions: dose of 20 mg/ear, arachidonic acid 2 mg, 60 min
Method: STUDY OF THE ACTIVITY OF THE COMPOUNDS OF THE INVENTION WITH RESPECT TO A TOPICAL INFLAMMATORY MODEL (psoriasis)
The present test enables the anti-inflammatory activity of the compounds of the invention with respect to such dermal lesions to be tested.
(Current Test Protocols-Pharmacology Service-Panlabs-June 92).
Arachidonic acid (2 mg in 20 μl of an acetone/pyridine/water (7:2:1) mixture) is applied topically to the anterior and posterior surfaces of the right ear of a mouse 30 min after a similar application of the test compound or of the vehicle (20 μl). The swelling of the ear is measured by a Dyer type gauge after 60 min as an index of the inflammation.
The percentage inhibition is calculated according to the formula: Ic-lt/Ic×100, in which Ic and It represent the increase in thickness (in mm) of the ear in the control mouse and in the treated mouse, respectively.

[5] = Stability of the solution of the salt; format: physicochemical; conditions: sodium salt, aqueous solution
[6] = Solubility of the salt in water; format: physicochemical; conditions: sodium salt

IC50 [2]: 200 nM | IC50 [3]: 40 nM
Structure (SMILES): O=C(O)C[C@]1(O)CCC[C@H](/C=C/C(O)CCCCc2ccccc2)C1 (relative stereo) [Example 7, (1S*,3S*)-1-HYDROXY-3-[(3R*S*,E)-3-HYDROXY-7-PHENYL-1-HEPTEN-1-YL]-1-CYCLOHEXANE-ACETIC ACID]
inhibition of the action of LTB4 on cell migration (in words) ([1]; up to a concentration of 50 μM): total inhibition | decrease in the volume of the ear [4]: 30%

Stability of the solution [5]: more than 18 months | solubility [6]: 100 mg/mL
Structure (SMILES): O=C(O)C[C@]1(O)CCC[C@H](/C=C/C(O)CCCCc2ccccc2)C1 (relative stereo) [Sodium (1S*,3S*)-1-hydroxy-3-[(3R*S*,E)-3-hydroxy-7-phenyl-1-hepten-1-yl]-1-cyclohexaneacetate]

Structure (SMILES): CN(C)C(=O)C[C@]1(O)CCC[C@H](/C=C/C(O)CCCCc2ccccc2)C1 (single isomer, unassigned) [Example 69, (1S*,3S*)-1-HYDROXY-3-[(3R*S*,E)-3-HYDROXY-7-PHENYL-1-HEPTEN-1-YL]CYCLOHEXANE-1-(N,N-DIMETHYLACETAMIDE)]
IC50 [2]: 500 nM

Structure (SMILES): CN(C)C(=O)C[C@@]1(O)CCC[C@H](/C=C/C(O)CCCCc2ccccc2)C1 (single isomer, unassigned) [Example 71, (1R*,3S*,E)-1-HYDROXY-3-[(3R*S*,E)-3-HYDROXY-7-PHENYL-1-HEPTEN-1-YL]CYCLOHEXANE-1-(N,N-DIMETHYLACETAMIDE)]
IC50 [2]: 2000 nM

Structure (SMILES): CCCCC/C=C\C[C@@H](O)/C=C/C=C/C=C\[C@@H](O)CCCC(=O)O [LTB4, Leukotriene B4, reference compound]
effect on the spontaneous migration of human PMN (in words) ([1]; LTB4 0.1 to 100 nM, BOYDEN-KELLER chambers): causes an activation of the spontaneous migration | displacement of [^3 H]LTB4 from its specific binding sites (in words) ([2]; human PMN, [^3 H]LTB4 (1 nM), increasing doses of unlabeled LTB4): dose-dependent displacement

— patent publication US5639902A, “(Cyclohexyl)alkene compounds” (Adir et Compagnie, priority 1993, dated 1997)
